Structures are written as SMILES.

2 molecules from article doi:10.1101/2025.08.13.670122v1 (bioRxiv, 2025) can be followed below.

The target of assay [1] is T1, AT1R (Homo sapiens, UniProt P30556).
T1 sequence (P30556 1-359): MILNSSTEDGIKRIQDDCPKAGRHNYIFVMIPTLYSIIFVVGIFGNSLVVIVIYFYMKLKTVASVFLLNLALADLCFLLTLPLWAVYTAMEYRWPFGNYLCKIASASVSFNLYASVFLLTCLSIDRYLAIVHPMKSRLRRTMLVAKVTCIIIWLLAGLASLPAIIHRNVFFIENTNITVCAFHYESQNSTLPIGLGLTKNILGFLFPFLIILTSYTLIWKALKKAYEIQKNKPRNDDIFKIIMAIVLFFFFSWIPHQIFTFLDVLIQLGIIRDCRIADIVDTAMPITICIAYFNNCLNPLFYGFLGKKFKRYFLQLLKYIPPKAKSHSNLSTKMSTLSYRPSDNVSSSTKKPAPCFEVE
As to the kind of experiment: Gαq activation BRET (GABY sensor) in HEK293 cells expressing AT1R. In kind it is cell-based. On the set-up: expressed in transfected cells; host or cells: HEK293 cells, transient PEI transfection. Particulars: for Emax Gαq (% AngII): HEK293/AT1R, GABY BRET sensor, response of the ligand at 10 μM, normalised to AngII; for EC50: HEK293 cells transiently expressing human AT1R, Gαq-RlucII/Gβ1/Gγ1-GFP10 (GABY) BRET sensor, BRET read 10 min after ligand, mean ± SEM of at least three to five independent experiments. The text has this: (§1) We utilized a clonal cell line HEK293, referred to hereafter as HEK293 cells, which has been previously described.[7],[8] As a gracious gift from A. Inoue (Tohoku University, Sendai, Miyagi, Japan), CRISPR Gαq/11 and Gα12/13 knockout cell lines (ΔGq/11 and ΔG12/13, respectively), were derived as previously explained.[48] In brief, a CRISPR-Cas9 system was used to target either GNAQ and GNA11 or GNA12 and GNA13 genes in HEK293T cells simultaneously to generate the Gαq/11 and Gα12/13 knockout cell lines. For the production of adenovirus, we utilized HEK293A cells. All cells were grown in DMEM supplemented with 10% FBS and Penicillin-Streptomycin-L-Glutamine (10000 IU penicillin, 10000 µg/mL Streptomycin, 200 mM L-Glutamine) at 37°C in T175 flasks under a 5% CO2 humidified chamber. Periodic testing was carried out for mycoplasma contamination (ABM™, Mycoplasma PCR Detection kit). For all biosensors used, cells underwent transfection with the PEI reagent, employing a PEI:DNA ratio of 3:1. For the Gαq biosensor, HEK293 cells were transfected with the plasmids coding for Gαq-RLucII (120 ng), Gβ1 (3000 ng), Gγ1-GFP10 (3000 ng), human AT1 (3000 ng) and Salmon sperm DNA (SSD) (880 ng). For the β-arrestin2 recruitment assay, HEK293 cells were transfected with the plasmids coding for 120 ng β-arrestin-2-RLucII, 3000 ng AT1, 3000 ng rGFP-CAAX, and 3880 ng SSD. For the measurement of PKC, HEK293 cells were transfected with 3000 ng AT1, 600 ng PKC-c1b, and 6400 ng SSD. […] 100 µL of the cell/DNA mixture was added to white 96-well plates and incubated at 37°C at 5% CO2 for 48 h. For the Rho assay, ΔG12/13 cells were seeded at a density of 9,000 cells per well in poly-ornithine-coated white 96-well plates and transfected the following day. In brief, 1 μg of total DNA in 100 μL of PBS was mixed with 100 μL of PBS containing 3 μL of 1 mg/mL PEI. For Rho signaling, 150 ng of AT1R DNA with 25 ng of PKN-RBD-RlucII [8], and 100 ng of rGFP-CAAX were used. Empty pcDNA was used to reach 1 µg of the total DNA amount in 100 μL of PBS. The DNA was then mixed with 100 μL of PBS containing 3 μL of 1 mg/mL PEI. After a 20-min incubation, the DNA/PEI complexes were dispensed into cells in 96-well plates (15 µL/well), and the experiment was carried out 48 h post-transfection.
On the day of the experiment, each well was washed with 80 µL of Tyrode’s buffer (140 mM NaCl, 2.7 mM KCl, 1 mM CaCl2, 12 mM NaHCO3, 5.6 mM D-glucose, 0.5 mM MgCl2, 0.37 mM NaH2PO4, 25 mM Hepes (pH 7.4)). This was followed by incubation for 1 h in Tyrode’s buffer at room temperature. For the Gαq, β-arrestin-2, and PKC biosensors used in HEK293 cells, coelenterazine 400A (at a final concentration of 5 μM) was added 10 min before stimulation. Cells were then stimulated with increasing doses of the indicated ligand, and BRET signals were measured using a Tristar2 (Berthold) microplate reader 10 min later. For the PKC and Rho biosensors in VSMCs, and the Rho biosensor in ΔG12/13 cells, cells were similarly stimulated with ligands for 1 min, 1 min 30 s, and 3 min, respectively, before BRET measurement. […] BRET signals were then measured using a Synergy2 (BioTek) microplate reader. The applied filter set was 410/80 nm and 515/30 nm, designed to detect the light emissions of RlucII (Renilla luciferase) (donor) and rGFP (acceptor), respectively.
(In general: Bioluminescence resonance energy transfer reports proximity on the nanometre scale.)

Assay [2] addresses T1, AT1R. As to the kind of experiment: Rho BRET sensor (PKN-RBD-RlucII/rGFP-CAAX) in ΔG12/13 HEK293 cells expressing AT1R. Details: expressed in transfected cells; host or cells: HEK293 cells, transient PEI transfection. Conditions: for Emax Rho Gαq/11 (% AngII): ΔG12/13 HEK293/AT1R, Rho BRET sensor, response at 10 μM, normalised to AngII; for EC50: ΔG12/13 HEK293 cells expressing AT1R, Rho (PKN-RBD-RlucII/rGFP-CAAX) BRET sensor, 3 min stimulation, mean ± SEM of at least three to five independent experiments, SEM, read-out: EC50 Rho Gαq/11. The assay is classed as cell-based.
Description: as §1
On the day of the experiment, each well was washed with 80 µL of Tyrode’s buffer (140 mM NaCl, 2.7 mM KCl, 1 mM CaCl2, 12 mM NaHCO3, 5.6 mM D-glucose, 0.5 mM MgCl2, 0.37 mM NaH2PO4, 25 mM Hepes (pH 7.4)). This was followed by incubation for 1 h in Tyrode’s buffer at room temperature. […] Cells were then stimulated with increasing doses of the indicated ligand, and BRET signals were measured using a Tristar2 (Berthold) microplate reader 10 min later. […] BRET signals were then measured using a Synergy2 (BioTek) microplate reader. […]

For the molecule `CC[C@H](C)[C@H](NC(=O)[C@H](Cc1ccc(O)cc1)NC(=O)[C@@H](NC(=O)[C@H](CCCNC(=N)N)NC(=O)[C@@H](N)CC(=O)O)C(C)C)C(=O)N[C@@H](Cc1c[nH]cn1)C(=O)N1CCC[C@H]1C(=O)N[C@@H](Cc1ccc(OC)cc1)C(=O)O` [compound 11], the “Emax Gαq (% AngII)” value at AT1R [1] amounted to 113 % AngII. The EC50 on AT1R [1] (SEM) was found to be 1.1 ± 0.4 nM. At AT1R [2], the “Emax Rho Gαq/11 (% AngII)” value was found to be 105 % AngII and the EC50 was determined as 2.3 ± 0.5 nM.
Consider `CC[C@H](C)[C@H](NC(=O)[C@H](Cc1ccc(O)cc1)NC(=O)[C@@H](NC(=O)[C@H](CCCNC(=N)N)NC(=O)[C@@H](N)CC(=O)O)C(C)C)C(=O)N[C@@H](Cc1c[nH]cn1)C(=O)N1CCC[C@H]1C(=O)N[C@@H](Cc1ccc(OCc2ccccc2)cc1)C(=O)O` [compound 12], for which, on AT1R [1], the “Emax Gαq (% AngII)” value amounted to 11 % AngII and the EC50 was more than 10000 nM. For the same molecule, at AT1R [2], the “Emax Rho Gαq/11 (% AngII)” value came to 47 % AngII and the EC50 is 21 ± 5 nM.
